Bounds are passed on as bounds.

Type in all cases: biochemical
Assay [1] has as its target T1, OleD A242V (Streptomyces antibioticus, UniProt Q53685, A242V/P55A/R82V/R83E/T84P).
T1 construct: made in house; host or cells: E. coli BL21(DE3)pLysS (error-prone PCR clone in pET28a)
Nature of the assay: Rate of glucoside formation with acceptors (RP-HPLC). The conditions noted are these: 200 μM acceptor, 1 mM UDPG. How it is done: (§1) Enzyme assays for the determination of glycosyl transfer rate to FIG. 1: 4, Table 1: 27-32 were carried out in a total volume of 500 μl 50 mM Tris-HCl (pH8.0) containing 5 mM MgCl2, 200 μM acceptor, 1 mM UDPG, and 50 μg pure enzyme. Aliquots (100 μl) were removed between 0 and 30 min, at which time product formation was still linear with respect to time, and quenched with 90 μl of an 8:1 mixture of ice-cold MeOH/HCl, and centrifuged at 14,000 rpm for 10 min. Supernatants were analyzed by analytical reverse-phase HPLC with a 250 mm×4.6 mm Gemini […] C18 column (Phenomenex, Torrance, Calif.) using a gradient of 10-90% CH3CN in 0.1% trifluoroacetic acid (TFA)/H2O in 20 min at 1 ml/min, with detection at 254 nm. HPLC peak areas were integrated, and the product concentration calculated as a percent of the total peak area. Product identity was confirmed by co-elution with a commercial standard when available and, in all cases, by LC-MS (FIG. 8).
(§2) Reaction conditions for assay of macrolide glycosylation were identical to that for FIG. 1: 1, except that typically, less enzyme was used (1-10 μg) and reactions were quenched with an equal volume of ice-cold MeOH. Centrifuged reaction mixtures were analyzed by analytical reverse-phase HPLC with a Gemini 5μ C18 column (Phenomenex) using a gradient of 0-90% CH3CN in 50 mM NH3COOH over 30 min at 1 ml/min. Products and acceptor macrolide were detected by evaporative light scattering detection (ELSD) using a drift tube temperature of 105° C. and a nitrogen flow of 2.5 ml/min. All products were characterized by APCI LC-MS on an Agilent 1100 Series LC/MSD quadrapole mass spectrometer connected to a UV detector. Quenched reaction mixtures were analyzed by reverse-phase HPLC with a 10 mm×4.6 mm Zorbax Extend 5μ C18 Analytical Guard Column (Agilent Technologies) using an isocratic gradient of 80% MeOH in 2 min at 1 ml/min, with detection at 254 nm.
(§3) Enzyme reactions were carried out in a total volume of 500 μl 50 mM Tris-HCl (pH8.0) containing 5 mM MgCl2, 200 μM acceptor, 1 mM UDPG, and 50 μg pure enzyme. Aliquots (100 μl) were removed between 0 and 30 min, and quenched with 90 μl of an 8:1 mixture of ice-cold MeOH/HCl for activity towards FIG. 1: 4, Table 1: 27-32, or with 90 μl of ice-cold MeOH for activity towards FIG. 1: 1, and the samples centrifuged at 14,000 rpm for 10 min.
(§4) For determination of activity to FIG. 1: 4, Table 1: 27-32, supernatants were analyzed by analytical reverse-phase HPLC with a Gemini 5μ C18 column (Phenomenex) using a gradient of 10-90% CH3CN in 0.1% trifluoroacetic acid (TFA)/H2O in 20 min, with detection at 254 nm. HPLC peak areas were integrated, and the product concentration calculated as a percent of the total peak area. All products were characterized by LC-MS. Mass spectra were obtained using electrospray ionization on an Agilent 1100 HPLC-MSD SL quadrapole mass spectrometer connected to a UV/Vis diode array detector. For LC-MS analysis, quenched reaction mixtures (see below) were analyzed by analytical reverse-phase HPLC with a 250 mm×4.6 mm Gemini 5μ C18 column (Phenomenex, Torrance, Calif.) using a gradient of 10-90% CH3CN in 0.1% formic acid/H2O in 20 min at 1 ml/min, with detection at 254 nm.
as §2, with “For determination” for “Reaction conditions for assay”, “activity toward” for “macrolide glycosylation were identical to that for”, “centrifuged” for “except that typically, less enzyme was used (1-10 μg) and reactions were quenched with an equal volume of ice-cold MeOH. Centrifuged”, “Compounds FIG. 1: 1” for “Products”, “3” for “acceptor macrolide”

The target in assay [2] is T2, OleD P67T (Streptomyces antibioticus, UniProt Q53685, P55A/P67T/R82V/R83E/T84P).
T2 construct: made in house; host or cells: E. coli (site-directed mutant of pET28/OleD)
The assay is described as above. The conditions noted are these: 200 μM acceptor, 1 mM UDPG. The protocol: as §1, §2, §3, §4
as §2, with “For determination” for “Reaction conditions for assay”, “activity toward” for “macrolide glycosylation were identical to that for”, “centrifuged” for “except that typically, less enzyme was used (1-10 μg) and reactions were quenched with an equal volume of ice-cold MeOH. Centrifuged”, “Compounds FIG. 1: 1” for “Products”, “3” for “acceptor macrolide”

In assay [3] the target is T3, OleD S132F (Streptomyces antibioticus, UniProt Q53685, P55A/R82V/R83E/S132F/T84P).
T3 construct: made in house; host or cells: E. coli (site-directed mutant of pET28/OleD)
The description is as above. The conditions noted are these: for Rate of glucoside formation, S132F: 200 μM acceptor, 1 mM UDPG. The protocol: as §1, §2, §3, §4
as §2, with “For determination” for “Reaction conditions for assay”, “activity toward” for “macrolide glycosylation were identical to that for”, “centrifuged” for “except that typically, less enzyme was used (1-10 μg) and reactions were quenched with an equal volume of ice-cold MeOH. Centrifuged”, “Compounds FIG. 1: 1” for “Products”, “3” for “acceptor macrolide”

The target in assay [4] is T4, WT OleD (Streptomyces antibioticus, UniProt Q53685, P55A/R82V/R83E/T84P).
T4 construct: made in house; host or cells: E. coli BL21(DE3)pLysS, plasmid pET28/OleD
The description is as above. The conditions noted are these: 200 μM acceptor, 1 mM UDPG. The protocol: as §1, §2, §3, §4
as §2, with “For determination” for “Reaction conditions for assay”, “activity toward” for “macrolide glycosylation were identical to that for”, “centrifuged” for “except that typically, less enzyme was used (1-10 μg) and reactions were quenched with an equal volume of ice-cold MeOH. Centrifuged”, “Compounds FIG. 1: 1” for “Products”, “3” for “acceptor macrolide”

Assay [5] deals with T5, OleD P67T/S132F/A242V (Streptomyces antibioticus, UniProt Q53685, A242V/P67T/S132F).
T5 construct: made in house; host or cells: E. coli (site-directed mutant of pET28/OleD)
The description is as above. The conditions noted are these: for Rate of glucoside formation, P67T/S132F/A242V: 200 μM acceptor, 1 mM UDPG; for Fold-improvement compared to WT OleD: rate of P67T/S132F/A242V versus WT. How it is done: as §1, with “8). […]” for “8).”
as §3, §4
as §2, with “For determination” for “Reaction conditions for assay”, “activity toward” for “macrolide glycosylation were identical to that for”, “centrifuged” for “except that typically, less enzyme was used (1-10 μg) and reactions were quenched with an equal volume of ice-cold MeOH. Centrifuged”, “Compounds FIG. 1: 1” for “Products”, “3” for “acceptor macrolide”

The target of assay [6] is T5, OleD P67T/S132F/A242V. The conditions noted are these: Table 3; 4-Me-umb (4) as acceptor, end point assay. How it is done:
Reactions were carried out as described above with the following exceptions. The total volume was 50 μl and the acceptor FIG. 1: 4 was at 50 μM and the NDP-sugar at ˜500 μM. The NDP-sugars were used directly from RmlA-catalyzed reactions. […] Reactions were incubated at 25° C. for 3 h.
The total volume was 50 μl and the acceptor FIG. 1: 4 or FIG. 1: 1 was at 50 μM and the NDP-sugar at ˜500 μM. The NDP-sugars were used directly from RmlA-catalyzed reactions. […] Reactions were incubated at 25° C. for 3 h.
For activity toward FIG. 1: 4, aliquots (25 μl) were quenched with 25 μl of an 8:1 mixture of ice-cold MeOH/HCl, and centrifuged at 14,000 rpm for 10 min. […] HPLC peak areas were integrated, and the product concentration calculated as a percent of the total peak area. All products were characterized by LC-MS. Mass spectra were obtained using electrospray ionization on an Agilent 1100 HPLC-MSD SL quadrapole mass spectrometer connected to a UV/Vis diode array detector.

With `O=C(O)Cc1cc(=O)oc2cc(O)ccc12` [7-hydroxycoumarin-4-acetic acid (27), 7-hydroxycoumarin-4-acetic acid], in assay [1], the “Rate of glucoside formation, A242V” value is recorded as 0.16 mmols/product formed/min/μg enzyme × 10^3. Also, in assay [2], the “Rate of glucoside formation, P67T” value is 0.22 mmols/product formed/min/μg enzyme × 10^3. Further, the “Rate of glucoside formation, S132F” value in assay [3] is given as 0.08 mmols/product formed/min/μg enzyme × 10^3. Also, the “Rate of glucoside formation, WT” value in assay [4] was “essentially non-detectable substrates”. The “Rate of glucoside formation, P67T/S132F/A242V” value in assay [5] is 3.6 mmols/product formed/min/μg enzyme × 10^3. For the same compound, the “Fold-improvement compared to WT OleD” value in assay [5] (UDPG donor) was greater than 180 fold; in assay [5] (UDPG donor, listed as Table 1: 27) it was greater than 180 fold.

With `O=c1c(O)c(-c2ccc(O)cc2)oc2cc(O)cc(O)c12` [kaempferol (30), kaempferol], in assay [1], the “Rate of glucoside formation, A242V” value was 15.3 mmols/product formed/min/μg enzyme × 10^3. The “Rate of glucoside formation, P67T” value in assay [2] was 99.9 mmols/product formed/min/μg enzyme × 10^3. Further, the “Rate of glucoside formation, S132F” value in assay [3] is recorded as 23 mmols/product formed/min/μg enzyme × 10^3. In addition, in assay [4], the “Rate of glucoside formation, WT” value is recorded as 13.2 mmols/product formed/min/μg enzyme × 10^3. The “Rate of glucoside formation, P67T/S132F/A242V” value in assay [5] is 28 mmols/product formed/min/μg enzyme × 10^3. For the same compound, the “Fold-improvement compared to WT OleD” value in assay [5] (UDPG donor) worked out at 2.1 fold.

Take `O=c1c(-c2ccc(O)cc2)coc2cc(O)ccc12` [daidzein (31), daidzein]: the “Rate of glucoside formation, A242V” value in assay [1] is recorded as 8.5 mmols/product formed/min/μg enzyme × 10^3. The “Rate of glucoside formation, P67T” value in assay [2] is on record as 16.0 mmols/product formed/min/μg enzyme × 10^3. Moreover, the “Rate of glucoside formation, S132F” value in assay [3] is listed as 5.5 mmols/product formed/min/μg enzyme × 10^3. Further, in assay [4], the “Rate of glucoside formation, WT” value is 4.2 mmols/product formed/min/μg enzyme × 10^3. Further, the “Rate of glucoside formation, P67T/S132F/A242V” value in assay [5] is on record as 24 mmols/product formed/min/μg enzyme × 10^3. Also, the “Fold-improvement compared to WT OleD” value in assay [5] (UDPG donor) amounted to 5.7 fold.

Turning to `O=C(O)c1cc2ccc(O)cc2oc1=O` [7-hydroxycoumarin-3-carboxylic acid (28), 7-hydroxycoumarin-3-carboxylic acid], the “Rate of glucoside formation, A242V” value in assay [1] was 0.01 mmols/product formed/min/μg enzyme × 10^3. For the same compound, the “Rate of glucoside formation, P67T” value in assay [2] was 0.022 mmols/product formed/min/μg enzyme × 10^3. Further, the “Rate of glucoside formation, S132F” value in assay [3] is recorded as 0.022 mmols/product formed/min/μg enzyme × 10^3. For the same compound, the “Rate of glucoside formation, WT” value in assay [4] is 0.01 mmols/product formed/min/μg enzyme × 10^3; in assay [4] (listed as Table 1: 28), “essentially non-detectable substrates”. Besides, the “Rate of glucoside formation, P67T/S132F/A242V” value in assay [5] is on record as 0.62 mmols/product formed/min/μg enzyme × 10^3. Besides, the “Fold-improvement compared to WT OleD” value in assay [5] (UDPG donor) came out at 62 fold.

With UDP-2-amino-glc [UDP-2-amino-glc (19)], in assay [6], the “Conversion rates (%), P67T/S132F/A242V” value is listed as 24%.

For the compound `O=c1c(-c2ccc(O)cc2)coc2cc(O)cc(O)c12` [genistein (32), genistein], the “Rate of glucoside formation, A242V” value in assay [1] was 14.1 mmols/product formed/min/μg enzyme × 10^3. The “Rate of glucoside formation, P67T” value in assay [2] is 28.8 mmols/product formed/min/μg enzyme × 10^3. For the same compound, the “Rate of glucoside formation, S132F” value in assay [3] was 8.8 mmols/product formed/min/μg enzyme × 10^3. Also, the “Rate of glucoside formation, WT” value in assay [4] is 3.4 mmols/product formed/min/μg enzyme × 10^3. Besides, the “Rate of glucoside formation, P67T/S132F/A242V” value in assay [5] is reported as 26 mmols/product formed/min/μg enzyme × 10^3. Moreover, the “Fold-improvement compared to WT OleD” value in assay [5] (UDPG donor) was 7.7 fold.

For the compound `CO[C@H]1C[C@H](O[C@H]2[C@H](C)[C@@H](O[C@@H]3O[C@H](C)C[C@H](N(C)C)[C@H]3O)[C@@H](C)C[C@@]3(CO3)C(=O)[C@H](C)[C@@H](O)[C@@H](C)[C@@H](C)OC(=O)[C@@H]2C)O[C@@H](C)[C@@H]1O` [oleandomycin (1), oleandomycin], the “Rate of glucoside formation, A242V” value in assay [1] is 70 mmols/product formed/min/μg enzyme × 10^3. Also, the “Rate of glucoside formation, P67T” value in assay [2] was 20 mmols/product formed/min/μg enzyme × 10^3. Further, the “Rate of glucoside formation, S132F” value in assay [3] was 1487 mmols/product formed/min/μg enzyme × 10^3. In addition, the “activity, fold more than WT OleD” value in assay [3] (UDPG donor) is roughly 2 fold. Besides, the “Rate of glucoside formation, WT” value in assay [4] was 700 mmols/product formed/min/μg enzyme × 10^3. In assay [5], the “Rate of glucoside formation, P67T/S132F/A242V” value was 13 mmols/product formed/min/μg enzyme × 10^3. Also, in assay [5] (UDPG donor), the “glucosylation rate, fold less than the WT enzyme” value is roughly 54 fold and the “Fold-improvement compared to WT OleD” value is recorded as 0.02 fold.

The values are drawn from patent US8093028B2, “Engineered glycosyltransferases with expanded substrate specificity” (Wisconsin Alumni Research Foundation, priority 2007, dated 2012).
